Data on 22 compounds can be found in patent publication US20240398828A1, “HETERO-ATOM CONTAINING COMPOUNDS AND USES THEREOF” (Kumquat Biosciences Inc., priority 2021, published 2024).

A value given as a limit tells only on which side of the number the result lay.

For one assay, the target named is T1, PTPN2 (i.e., TC-PTP) (Homo sapiens, UniProt P17706).
T1 sequence (P17706 1-415): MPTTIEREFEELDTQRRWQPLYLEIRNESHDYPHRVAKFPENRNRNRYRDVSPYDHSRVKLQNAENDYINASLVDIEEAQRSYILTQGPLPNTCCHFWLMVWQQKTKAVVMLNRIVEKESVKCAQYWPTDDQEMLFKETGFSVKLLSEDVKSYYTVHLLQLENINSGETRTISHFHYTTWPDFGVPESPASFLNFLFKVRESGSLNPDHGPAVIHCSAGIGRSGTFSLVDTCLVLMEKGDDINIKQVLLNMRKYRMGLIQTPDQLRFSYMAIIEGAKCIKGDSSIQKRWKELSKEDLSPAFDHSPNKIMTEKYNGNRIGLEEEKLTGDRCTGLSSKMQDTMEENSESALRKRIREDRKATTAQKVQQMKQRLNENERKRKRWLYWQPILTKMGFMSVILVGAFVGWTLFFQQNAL
The assay can be described thus: Phosphatase activity assay (DiFMUP substrate), PTPN2. The assay is classed as biochemical. As to conditions: compounds binned ≤1 uM or >1 uM. Summed up: (§1)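 RT, HEPES pH 7.5 buffer with DTT/Tween-20. 10-point inhibitor series premixed ~2 min with enzyme (PTPN2 0.025 ng/ul). Start with DiFMUP at enzyme Km (~45 μM for PTPN2). Read DiFMU ex360/em450 continuously 15–30 min; initial rate vs concentration, 4-parameter fit → IC50.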

For another assay, the target named is T2, PTPN1 (i.e., PTP1B) (Homo sapiens, UniProt P18031).
T2 sequence (P18031 1-435): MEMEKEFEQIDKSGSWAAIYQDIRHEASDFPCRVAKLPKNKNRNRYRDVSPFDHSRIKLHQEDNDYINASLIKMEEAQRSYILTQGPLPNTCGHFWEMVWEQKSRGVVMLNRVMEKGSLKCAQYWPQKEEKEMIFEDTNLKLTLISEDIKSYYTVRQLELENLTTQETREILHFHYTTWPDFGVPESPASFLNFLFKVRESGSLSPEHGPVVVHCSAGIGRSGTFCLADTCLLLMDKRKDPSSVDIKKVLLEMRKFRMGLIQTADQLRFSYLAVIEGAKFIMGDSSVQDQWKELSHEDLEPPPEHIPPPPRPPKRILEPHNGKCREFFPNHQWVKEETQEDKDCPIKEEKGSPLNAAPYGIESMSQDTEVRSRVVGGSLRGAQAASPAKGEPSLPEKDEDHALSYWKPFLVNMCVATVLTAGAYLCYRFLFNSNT
The assay can be described thus: Phosphatase activity assay (DiFMUP substrate), PTP1B. Format: biochemical. As to conditions: compounds binned ≤1 uM or >1 uM. Summed up: as §1

In the case of `Cc1n[nH]c(C)c1-c1ccc(O)c(N2CC(=O)NS2(=O)=O)c1F` [Compound 164, 5-(3-(3,5-dimethyl-1H-pyrazol-4-yl)-2-fluoro-6-hydroxyphenyl)-1,2,5-thiadiazolidin-3-one 1,1-dioxide], the concentration for half-maximal inhibition (IC50) on PTPN2 (i.e., TC-PTP) is greater than 1000 nM; on PTPN1 (i.e., PTP1B), greater than 1000 nM.

Consider `N#CCc1cc(-c2ccc(O)c(N3CC(=O)NS3(=O)=O)c2F)[nH]n1` [Compound 365, 2-(5-(3-(1,1-dioxido-4-oxo-1,2,5-thiadiazolidin-2-yl)-2-fluoro-4-hydroxyphenyl)-1H-pyrazol-3-yl)acetonitrile], for which the half-inhibitory concentration (IC50) was no more than 1000 nM on PTPN2 (i.e., TC-PTP) and no more than 1000 nM at PTPN1 (i.e., PTP1B).

For the compound `Cc1cnn(-c2ccc(O)c(N3CC(=O)NS3(=O)=O)c2F)c1` [Compound 386, 5-(2-fluoro-6-hydroxy-3-(4-methyl-1H-pyrazol-1-yl)phenyl)-1,2,5-thiadiazolidin-3-one 1,1-dioxide], the IC50 at PTPN2 (i.e., TC-PTP) is no more than 1000 nM; at PTPN1 (i.e., PTP1B), no more than 1000 nM.

On to `N#Cc1ccc(-c2ccc(O)c(N3CC(=O)NS3(=O)=O)c2F)cn1` [Compound 144, 5-(3-(1,1-dioxido-4-oxo-1,2,5-thiadiazolidin-2-yl)-2-fluoro-4-hydroxyphenyl)picolinonitrile], for which the IC50 at PTPN2 (i.e., TC-PTP) was no more than 1000 nM; at PTPN1 (i.e., PTP1B) it was no more than 1000 nM.

For the compound `Cn1nc(C2CC2)cc1-c1ccc(O)c(N2CC(=O)NS2(=O)=O)c1F` [Compound 278, 5-(3-(3-cyclopropyl-1-methyl-1H-pyrazol-5-yl)-2-fluoro-6-hydroxyphenyl)-1,2,5-thiadiazolidin-3-one 1,1-dioxide], the IC50 at PTPN2 (i.e., TC-PTP) is no more than 1000 nM; at PTPN1 (i.e., PTP1B), no more than 1000 nM.

Regarding `O=C1CN(c2c(O)ccc(C3=CCOCC3)c2F)S(=O)(=O)N1` [Compound 405, 5-(3-(3,6-dihydro-2H-pyran-4-yl)-2-fluoro-6-hydroxyphenyl)-1,2,5-thiadiazolidin-3-one 1,1-dioxide], the concentration for half-maximal inhibition (IC50) was no more than 1000 nM on PTPN2 (i.e., TC-PTP) and no more than 1000 nM on PTPN1 (i.e., PTP1B).

Consider `O=C1CN(c2c(O)ccc(-c3ccc(N4CCCC4)cc3)c2F)S(=O)(=O)N1` [Compound 117, 5-(2-fluoro-4-hydroxy-4′-(pyrrolidin-1-yl)-[1,1′-biphenyl]-3-yl)-1,2,5-thiadiazolidin-3-one 1,1-dioxide], for which the half-maximal inhibitory concentration (IC50) on PTPN2 (i.e., TC-PTP) was no more than 1000 nM; on PTPN1 (i.e., PTP1B), no more than 1000 nM.

`CC1C(=O)NS(=O)(=O)N1c1c(O)ccc(-c2cnn(Cc3cccc(F)c3)c2)c1F` (centres unmarked) [Compound 155, 5-(2-fluoro-3-(1-(3-fluorobenzyl)-1H-pyrazol-4-yl)-6-hydroxyphenyl)-4-methyl-1,2,5-thiadiazolidin-3-one 1,1-dioxide]: the IC50 on PTPN2 (i.e., TC-PTP) is no more than 1000 nM; on PTPN1 (i.e., PTP1B) it was no more than 1000 nM.

On to `O=C1CN(c2c(O)ccc(-c3cc(O)cc4ccccc34)c2F)S(=O)(=O)N1` [Compound 218, 5-(2-fluoro-6-hydroxy-3-(3-hydroxynaphthalen-1-yl)phenyl)-1,2,5-thiadiazolidin-3-one 1,1-dioxide], for which the IC50 on PTPN2 (i.e., TC-PTP) was greater than 1000 nM; at PTPN1 (i.e., PTP1B), greater than 1000 nM.

With `C=Cc1cc(-c2ccc(O)c(N3CC(=O)NS3(=O)=O)c2F)[nH]n1` [Compound 312, 5-(2-fluoro-6-hydroxy-3-(3-vinyl-1H-pyrazol-5-yl)phenyl)-1,2,5-thiadiazolidin-3-one 1,1-dioxide], the IC50 is no more than 1000 nM on PTPN2 (i.e., TC-PTP) and no more than 1000 nM at PTPN1 (i.e., PTP1B).

Turning to `CC1CC(c2ccc(O)c(N3CC(=O)NS3(=O)=O)c2F)CN1` (centres unmarked) [Compound 407, 5-(2-fluoro-6-hydroxy-3-(5-methylpyrrolidin-3-yl)phenyl)-1,2,5-thiadiazolidin-3-one 1,1-dioxide], the 50% inhibitory concentration (IC50) is no more than 1000 nM on PTPN2 (i.e., TC-PTP) and no more than 1000 nM at PTPN1 (i.e., PTP1B).

On to `O=C1CN(c2c(O)ccc(-c3cccc(N4CCCC4)c3)c2F)S(=O)(=O)N1` [Compound 122, 5-(2-fluoro-4-hydroxy-3′-(pyrrolidin-1-yl)-[1,1′-biphenyl]-3-yl)-1,2,5-thiadiazolidin-3-one 1,1-dioxide], for which the IC50 on PTPN2 (i.e., TC-PTP) is no more than 1000 nM; at PTPN1 (i.e., PTP1B), no more than 1000 nM.

Regarding `CC(C)CCn1ccc(-c2ccc(O)c(N3CC(=O)NS3(=O)=O)c2F)c1` [Compound 125, 5-(2-fluoro-6-hydroxy-3-(1-isopentyl-1H-pyrrol-3-yl)phenyl)-1,2,5-thiadiazolidin-3-one 1,1-dioxide], the concentration for half-maximal inhibition (IC50) is no more than 1000 nM at PTPN2 (i.e., TC-PTP) and no more than 1000 nM on PTPN1 (i.e., PTP1B).

For `Cn1cc(-c2ccc(O)c(N3CC(=O)NS3(=O)=O)c2F)nc1O` [Compound 527, 5-(2-fluoro-6-hydroxy-3-(2-hydroxy-1-methyl-1H-imidazol-4-yl)phenyl)-1,2,5-thiadiazolidin-3-one 1,1-dioxide], the IC50 was no more than 1000 nM at PTPN2 (i.e., TC-PTP) and no more than 1000 nM on PTPN1 (i.e., PTP1B).

Regarding `O=C1CN(c2c(O)ccc(-c3cc(CCC(F)(F)F)n[nH]3)c2F)S(=O)(=O)N1` [Compound 415, 5-(2-fluoro-6-hydroxy-3-(3-(3,3,3-trifluoropropyl)-1H-pyrazol-5-yl)phenyl)-1,2,5-thiadiazolidin-3-one 1,1-dioxide], the IC50 is no more than 1000 nM on PTPN2 (i.e., TC-PTP) and no more than 1000 nM at PTPN1 (i.e., PTP1B).

Consider `O=C1CN(c2c(O)ccc(-c3cc(CCCC4CC4)n[nH]3)c2F)S(=O)(=O)N1` [Compound 464, 5-(3-(3-(3-cyclopropylpropyl)-1H-pyrazol-5-yl)-2-fluoro-6-hydroxyphenyl)-1,2,5-thiadiazolidin-3-one 1,1-dioxide], for which the IC50 was no more than 1000 nM on PTPN2 (i.e., TC-PTP) and no more than 1000 nM at PTPN1 (i.e., PTP1B).

`COc1ncc(-c2ccc(O)c(N3CC(=O)NS3(=O)=O)c2F)cn1` [Compound 118, 5-(2-fluoro-6-hydroxy-3-(2-methoxypyrimidin-5-yl)phenyl)-1,2,5-thiadiazolidin-3-one 1,1-dioxide]: the IC50 at PTPN2 (i.e., TC-PTP) was no more than 1000 nM; on PTPN1 (i.e., PTP1B), no more than 1000 nM.

For `O=C1CN(c2c(O)ccc(-c3cnn(Cc4cncc(F)c4)c3)c2F)S(=O)(=O)N1` [Compound 111, 5-(2-fluoro-3-(1-((5-fluoropyridin-3-yl)methyl)-1H-pyrazol-4-yl)-6-hydroxyphenyl)-1,2,5-thiadiazolidin-3-one 1,1-dioxide], the IC50 at PTPN2 (i.e., TC-PTP) was no more than 1000 nM; on PTPN1 (i.e., PTP1B), no more than 1000 nM.

On to `CN1CC2(CCC(n3cc(-c4ccc(O)c(N5CC(=O)NS5(=O)=O)c4F)cn3)CC2)C1` [Compound 271, 5-(2-fluoro-6-hydroxy-3-(1-(2-methyl-2-azaspiro[3.5]nonan-7-yl)-1H-pyrazol-4-yl)phenyl)-1,2,5-thiadiazolidin-3-one 1,1-dioxide], for which the IC50 at PTPN2 (i.e., TC-PTP) was no more than 1000 nM; on PTPN1 (i.e., PTP1B) it was no more than 1000 nM.

Consider `CC(C)c1cc(-c2ccc(O)c(N3CC(=O)NS3(=O)=O)c2F)nn1C` [Compound 447, 5-(2-fluoro-6-hydroxy-3-(5-isopropyl-1-methyl-1H-pyrazol-3-yl)phenyl)-1,2,5-thiadiazolidin-3-one 1,1-dioxide], for which the IC50 on PTPN2 (i.e., TC-PTP) was no more than 1000 nM; at PTPN1 (i.e., PTP1B) it was no more than 1000 nM.

As to `Cn1nc(-c2ccc(O)c(N3CC(=O)NS3(=O)=O)c2F)cc1C1(N)CC1` [Compound 345, 5-(3-(5-(1-aminocyclopropyl)-1-methyl-1H-pyrazol-3-yl)-2-fluoro-6-hydroxyphenyl)-1,2,5-thiadiazolidin-3-one 1,1-dioxide], the IC50 is no more than 1000 nM on PTPN2 (i.e., TC-PTP) and no more than 1000 nM at PTPN1 (i.e., PTP1B).

Regarding `O=C1CN(c2c(O)ccc(-c3cn(-c4cccc(C(F)(F)F)c4)cn3)c2F)S(=O)(=O)N1` [Compound 325, 5-(2-fluoro-6-hydroxy-3-(1-(3-(trifluoromethyl)phenyl)-1H-imidazol-4-yl)phenyl)-1,2,5-thiadiazolidin-3-one 1,1-dioxide], the IC50 on PTPN2 (i.e., TC-PTP) was no more than 1000 nM; on PTPN1 (i.e., PTP1B), no more than 1000 nM.
